The molecules below were run on HCT116 cells (assay: In vitro cytotoxicity measured by the cell colony formation assay). Details: HCT116 cells, 72 h incubation with drug, colonies counted after 7 days; ID50 = drug concentration producing 50% inhibition of colony formation; read-out: IN VITRO ID 50 (nm) HCT116.
Assay type: cell-based
Method in brief: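 Colony-forming survival was scored 7 days after a 72 h, 37 °C compound exposure followed by washout into fresh medium.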

**Q.** For `COC(=O)O[C@H]1C(=O)[C@@]2(C)C([C@H](OC(=O)c3ccccc3)[C@]3(O)C[C@H](OC(=O)[C@H](O)[C@@H](NC(=O)OC(C)(C)C)c4ccco4)C(C)=C1C3(C)C)[C@]1(OC(C)=O)CO[C@@H]1C[C@@H]2O` (stereo partly shown) [Compound 2666], which IC50 is on record?
**A.** < 1 nM

Same assay, conditions: HCT116 cells, colony formation, 72 h incubation with drug, colonies counted after 7 days; ID50 = drug concentration producing 50% inhibition of colony formation; read-out: IN VITRO ID 50 (nm) HCT116

**Q.** How did the IC50 turn out when `CCNC(=O)O[C@H]1C(=O)[C@@]2(C)C([C@H](OC(=O)c3ccccc3)[C@]3(O)C[C@H](OC(=O)[C@H](O)[C@@H](NC(=O)OC(C)(C)C)c4ccccn4)C(C)=C1C3(C)C)[C@]1(OC(C)=O)CO[C@@H]1C[C@@H]2O` (stereo partly shown) [Compound 2600] was run?
**A.** < 1 nM

**Q.** Which IC50 does the source give for `CCNC(=O)O[C@H]1C(=O)[C@@]2(C)C([C@H](OC(=O)c3ccccc3)[C@]3(O)C[C@H](OC(=O)[C@H](O)[C@@H](NC(=O)OC(C)(C)C)c4cccnc4)C(C)=C1C3(C)C)[C@]1(OC(C)=O)CO[C@@H]1C[C@@H]2O` (stereo partly shown) [Compound 2616] here?
**A.** 27 nM

**Q.** `CCNC(=O)O[C@H]1C(=O)[C@@]2(C)C([C@H](OC(=O)c3ccccc3)[C@]3(O)C[C@H](OC(=O)[C@H](O)[C@@H](NC(=O)OC(C)(C)C)c4ccsc4)C(C)=C1C3(C)C)[C@]1(OC(C)=O)CO[C@@H]1C[C@@H]2O` (stereo partly shown) [Compound 2622] was tested. Which IC50 did it give?
**A.** < 1 nM

**Q.** For `CCNC(=O)O[C@H]1C(=O)[C@@]2(C)C([C@H](OC(=O)c3ccccc3)[C@]3(O)C[C@H](OC(=O)[C@H](O)[C@@H](NC(=O)OC(C)(C)C)C(C)C)C(C)=C1C3(C)C)[C@]1(OC(C)=O)CO[C@@H]1C[C@@H]2O` (stereo partly shown) [Compound 2633], which IC50 is on record?
**A.** < 10 nM

**Q.** How did the IC50 turn out when `CCNC(=O)O[C@H]1C(=O)[C@@]2(C)C([C@H](OC(=O)c3ccccc3)[C@]3(O)C[C@H](OC(=O)[C@H](O)[C@@H](NC(=O)OC(C)(C)C)c4ccccc4)C(C)=C1C3(C)C)[C@]1(OC(C)=O)CO[C@@H]1C[C@@H]2O` (stereo partly shown) [Compound 2640] was run?
**A.** < 1 nM

**Q.** `CCNC(=O)O[C@H]1C(=O)[C@@]2(C)C([C@H](OC(=O)c3ccccc3)[C@]3(O)C[C@H](OC(=O)[C@H](O)[C@H](C=C(C)C)NC(=O)OC(C)(C)C)C(C)=C1C3(C)C)[C@]1(OC(C)=O)CO[C@@H]1C[C@@H]2O` (stereo partly shown) [Compound 2686] was tested. Which IC50 did it give?
**A.** < 1 nM

**Q.** Which IC50 does the source give for `CCNC(=O)O[C@H]1C(=O)[C@@]2(C)C([C@H](OC(=O)c3ccccc3)[C@]3(O)C[C@H](OC(=O)[C@H](O)[C@@H](NC(=O)OC(C)(C)C)c4ccco4)C(C)=C1C3(C)C)[C@]1(OC(C)=O)CO[C@@H]1C[C@@H]2O` (stereo partly shown) [Compound 2700] here?
**A.** < 1 nM

**Q.** With `CCNC(=O)O[C@H]1C(=O)[C@@]2(C)C([C@H](OC(=O)c3ccccc3)[C@]3(O)C[C@H](OC(=O)[C@H](O)[C@@H](NC(=O)OC(C)(C)C)c4ccoc4)C(C)=C1C3(C)C)[C@]1(OC(C)=O)CO[C@@H]1C[C@@H]2O` (stereo partly shown) [Compound 2717] as the molecule, how does the IC50 read?
**A.** < 1 nM

Same assay, conditions: HCT116 colony formation; 72 h drug incubation, colonies counted after 7 days; Example 10, C-10 ester/C-7 hydroxy taxanes; read-out: IN VITRO ID 50 (nm) HCT116

**Q.** With `C/C=C/C(=O)O[C@H]1C(=O)[C@@]2(C)C([C@H](OC(=O)c3ccccc3)[C@]3(O)C[C@H](OC(=O)[C@H](O)[C@@H](NC(=O)OC(C)(C)C)c4ccco4)C(C)=C1C3(C)C)[C@]1(OC(C)=O)CO[C@@H]1C[C@@H]2O` (stereo partly shown) [Compound 2379] as the molecule, how does the IC50 read?
**A.** < 1 nM

**Q.** How did the IC50 turn out when `C/C=C/C(=O)O[C@H]1C(=O)[C@@]2(C)C([C@H](OC(=O)c3ccccc3)[C@]3(O)C[C@H](OC(=O)[C@H](O)[C@@H](NC(=O)OC(C)(C)C)c4ccoc4)C(C)=C1C3(C)C)[C@]1(OC(C)=O)CO[C@@H]1C[C@@H]2O` (stereo partly shown) [Compound 2380] was run?
**A.** < 1 nM

**Q.** With `C/C=C/C(=O)O[C@H]1C(=O)[C@@]2(C)C([C@H](OC(=O)c3ccccc3)[C@]3(O)C[C@H](OC(=O)[C@H](O)[C@@H](NC(=O)OC(C)(C)C)c4cccs4)C(C)=C1C3(C)C)[C@]1(OC(C)=O)CO[C@@H]1C[C@@H]2O` (stereo partly shown) [Compound 2392] as the molecule, how does the IC50 read?
**A.** < 1 nM

**Q.** For `C/C=C/C(=O)O[C@H]1C(=O)[C@@]2(C)C([C@H](OC(=O)c3ccccc3)[C@]3(O)C[C@H](OC(=O)[C@H](O)[C@@H](NC(=O)OC(C)(C)C)c4ccsc4)C(C)=C1C3(C)C)[C@]1(OC(C)=O)CO[C@@H]1C[C@@H]2O` (stereo partly shown) [Compound 2408], which IC50 is on record?
**A.** < 1 nM

**Q.** `C/C=C/C(=O)O[C@H]1C(=O)[C@@]2(C)C([C@H](OC(=O)c3ccccc3)[C@]3(O)C[C@H](OC(=O)[C@H](O)[C@@H](NC(=O)OC(C)(C)C)C(C)C)C(C)=C1C3(C)C)[C@]1(OC(C)=O)CO[C@@H]1C[C@@H]2O` (stereo partly shown) [Compound 2413] was tested. Which IC50 did it give?
**A.** < 10 nM

**Q.** For `C/C=C/C(=O)O[C@H]1C(=O)[C@@]2(C)C([C@H](OC(=O)c3ccccc3)[C@]3(O)C[C@H](OC(=O)[C@H](O)[C@@H](NC(=O)OC(C)(C)C)C4CCC4)C(C)=C1C3(C)C)[C@]1(OC(C)=O)CO[C@@H]1C[C@@H]2O` (stereo partly shown) [Compound 2424], which IC50 is on record?
**A.** < 10 nM

**Q.** How did the IC50 turn out when `C/C=C/C(=O)O[C@H]1C(=O)[C@@]2(C)C([C@H](OC(=O)c3ccccc3)[C@]3(O)C[C@H](OC(=O)[C@H](O)[C@@H](NC(=O)OC(C)(C)C)c4ccc([N+](=O)[O-])cc4)C(C)=C1C3(C)C)[C@]1(OC(C)=O)CO[C@@H]1C[C@@H]2O` (stereo partly shown) [Compound 2439] was run?
**A.** < 10 nM

**Q.** How did the IC50 turn out when `C/C=C/C(=O)O[C@H]1C(=O)[C@@]2(C)C([C@H](OC(=O)c3ccccc3)[C@]3(O)C[C@H](OC(=O)[C@H](O)[C@@H](NC(=O)OC(C)(C)C)c4ccccc4)C(C)=C1C3(C)C)[C@]1(OC(C)=O)CO[C@@H]1C[C@@H]2O` (stereo partly shown) [Compound 2442] was run?
**A.** < 1 nM

**Q.** For `CC(=O)O[C@@]12CO[C@@H]1C[C@H](O)[C@@]1(C)C(=O)[C@H](OC(=O)C=C(C)C)C3=C(C)[C@@H](OC(=O)[C@H](O)[C@H](C=C(C)C)NC(=O)OC(C)(C)C)C[C@@](O)([C@@H](OC(=O)c4ccccc4)C12)C3(C)C` (stereo partly shown) [Compound 2455], which IC50 is on record?
**A.** < 10 nM

**Q.** With `CC(=O)O[C@@]12CO[C@@H]1C[C@H](O)[C@@]1(C)C(=O)[C@H](OC(=O)C=C(C)C)C3=C(C)[C@@H](OC(=O)[C@H](O)[C@@H](NC(=O)OC(C)(C)C)c4ccccn4)C[C@@](O)([C@@H](OC(=O)c4ccccc4)C12)C3(C)C` (stereo partly shown) [Compound 2464] as the molecule, how does the IC50 read?
**A.** < 1 nM

**Q.** `CC(=O)O[C@@]12CO[C@@H]1C[C@H](O)[C@@]1(C)C(=O)[C@H](OC(=O)C=C(C)C)C3=C(C)[C@@H](OC(=O)[C@H](O)[C@@H](NC(=O)OC(C)(C)C)c4ccncc4)C[C@@](O)([C@@H](OC(=O)c4ccccc4)C12)C3(C)C` (stereo partly shown) [Compound 2472] was tested. Which IC50 did it give?
**A.** < 1 nM

**Q.** For `CC(=O)O[C@@]12CO[C@@H]1C[C@H](O)[C@@]1(C)C(=O)[C@H](OC(=O)C=C(C)C)C3=C(C)[C@@H](OC(=O)[C@H](O)[C@@H](NC(=O)OC(C)(C)C)c4ccco4)C[C@@](O)([C@@H](OC(=O)c4ccccc4)C12)C3(C)C` (stereo partly shown) [Compound 2488], which IC50 is on record?
**A.** < 1 nM

**Q.** `CC(=O)O[C@@]12CO[C@@H]1C[C@H](O)[C@@]1(C)C(=O)[C@H](OC(=O)C=C(C)C)C3=C(C)[C@@H](OC(=O)[C@H](O)[C@@H](NC(=O)OC(C)(C)C)c4ccoc4)C[C@@](O)([C@@H](OC(=O)c4ccccc4)C12)C3(C)C` (stereo partly shown) [Compound 2499] was tested. Which IC50 did it give?
**A.** < 1 nM

**Q.** `CC(=O)O[C@@]12CO[C@@H]1C[C@H](O)[C@@]1(C)C(=O)[C@H](OC(=O)C=C(C)C)C3=C(C)[C@@H](OC(=O)[C@H](O)[C@@H](NC(=O)OC(C)(C)C)c4cccs4)C[C@@](O)([C@@H](OC(=O)c4ccccc4)C12)C3(C)C` (stereo partly shown) [Compound 2503] was tested. Which IC50 did it give?
**A.** < 1 nM

**Q.** With `CC(=O)O[C@@]12CO[C@@H]1C[C@H](O)[C@@]1(C)C(=O)[C@H](OC(=O)C=C(C)C)C3=C(C)[C@@H](OC(=O)[C@H](O)[C@@H](NC(=O)OC(C)(C)C)c4ccsc4)C[C@@](O)([C@@H](OC(=O)c4ccccc4)C12)C3(C)C` (stereo partly shown) [Compound 2511] as the molecule, how does the IC50 read?
**A.** < 1 nM

**Q.** How did the IC50 turn out when `CC(=O)O[C@@]12CO[C@@H]1C[C@H](O)[C@@]1(C)C(=O)[C@H](OC(=O)C=C(C)C)C3=C(C)[C@@H](OC(=O)[C@H](O)[C@@H](NC(=O)OC(C)(C)C)c4ccccc4)C[C@@](O)([C@@H](OC(=O)c4ccccc4)C12)C3(C)C` (stereo partly shown) [Compound 2520] was run?
**A.** < 10 nM

Reference: US6638973B2, “Taxane formulations” (FSU Research Foundation, Inc., priority 2000, dated 2003)
